Source: PubChem BioAssay (NCI)
Where “and” joins values, the source holds several entries; their conditions need not be identical. Equal values may be shown once.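 Step 1: Grow cells in 96-well plates. Step 2: Expose to compound for 48 hours at 5 concentrations. Step 3: Interpolate endpoints linearly; if unreached, use highest concentration. GI50 = concentration required for 50% inhibition of growth. TGI denotes the concentration required for complete inhibition of growth.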

Key:
Test in all cases: NCI anticancer screen, dose series, 48 h
SF-268 CNS = system: SF-268 CNS
MCF7 breast = system: MCF7 breast
M14 melanoma = system: M14 melanoma
MDA-MB-231 breast = system: MDA-MB-231 breast
UACC-257 melanoma = system: UACC-257 melanoma
OVCAR-8 ovarian = system: OVCAR-8 ovarian
SF-539 CNS = system: SF-539 CNS
EKVX NSCLC = system: EKVX NSCLC
K-562 leukemia = system: K-562 leukemia
HT29 colon = system: HT29 colon

C=C1CCC2C3(C)COC(c4ccc(NC(C)=O)cc4)OC3CCC2(C)C1C/C=C1/C(=O)OCC1O (configuration not stated)
GI50 (SF-268 CNS): > 100 µM
TGI (SF-268 CNS): > 100 µM
GI50 (MCF7 breast): 4.58 µM
TGI (MCF7 breast): > 100 µM
GI50 (M14 melanoma): > 100 µM
TGI (M14 melanoma): > 100 µM
GI50 (MDA-MB-231 breast): > 100 µM
TGI (MDA-MB-231 breast): > 100 µM
GI50 (UACC-257 melanoma): 6.26 µM
TGI (UACC-257 melanoma): > 100 µM
GI50 (OVCAR-8 ovarian): 7.76 µM
TGI (OVCAR-8 ovarian): > 100 µM
GI50 (SF-539 CNS): > 100 µM
TGI (SF-539 CNS): > 100 µM
GI50 (EKVX NSCLC): 2.71 µM
TGI (EKVX NSCLC): > 100 µM
GI50 (K-562 leukemia): 2.26 µM
TGI (K-562 leukemia): > 100 µM
GI50 (HT29 colon): 5.35 µM
TGI (HT29 colon): > 100 µM

CCOC1OCCCC1Br (configuration not stated)
TGI (SF-268 CNS): > 100 µM
TGI (MCF7 breast): > 100 µM
TGI (M14 melanoma): > 100 µM
TGI (MDA-MB-231 breast): > 100 µM
TGI (UACC-257 melanoma): > 100 µM
TGI (OVCAR-8 ovarian): > 100 µM
TGI (SF-539 CNS): > 100 µM
TGI (EKVX NSCLC): > 100 µM
TGI (K-562 leukemia): > 100 µM
TGI (HT29 colon): > 100 µM

COc1ccc(/C=C/c2c(C(=O)/C=C/c3ccc(Cl)cc3)c(C)nc3ccccc23)cc1
GI50 (SF-268 CNS): 1.98 µM
TGI (SF-268 CNS): 4.56 µM
GI50 (MCF7 breast): 1.29 µM
TGI (MCF7 breast): 4.11 µM
GI50 (M14 melanoma): 1.83 µM
TGI (M14 melanoma): 4.15 µM
GI50 (MDA-MB-231 breast): 2.38 µM
TGI (MDA-MB-231 breast): 7.82 µM
GI50 (UACC-257 melanoma): 2.09 µM
TGI (UACC-257 melanoma): 4.55 µM
GI50 (OVCAR-8 ovarian): 2.43 µM
TGI (OVCAR-8 ovarian): 9.13 µM
GI50 (SF-539 CNS): 1.78 µM
TGI (SF-539 CNS): 3.27 µM
GI50 (EKVX NSCLC): 1.55 µM
TGI (EKVX NSCLC): 3.49 µM
GI50 (K-562 leukemia): 2.19 µM
TGI (K-562 leukemia): > 100 µM
GI50 (HT29 colon): 1.61 µM
TGI (HT29 colon): 6.05 µM

COc1ccccc1/C=C\c1cnnc2ccccc12
TGI (SF-268 CNS): > 10 µM
TGI (MCF7 breast): > 10 µM
TGI (M14 melanoma): > 10 µM
TGI (MDA-MB-231 breast): > 10 µM
TGI (UACC-257 melanoma): > 10 µM
TGI (OVCAR-8 ovarian): > 10 µM
TGI (SF-539 CNS): > 10 µM
TGI (EKVX NSCLC): > 10 µM
TGI (K-562 leukemia): > 10 µM
TGI (HT29 colon): > 10 µM

S=c1nc(-c2ccccc2)oc(=NC2CCCCC2)n1C1CCCCC1
GI50 (SF-268 CNS): 4.72 µM
TGI (SF-268 CNS): 17.6 µM
GI50 (MCF7 breast): 3.2 µM
TGI (MCF7 breast): 12.2 µM
GI50 (M14 melanoma): 6.2 µM
TGI (M14 melanoma): 27.8 µM
GI50 (MDA-MB-231 breast): 3.69 µM
TGI (MDA-MB-231 breast): 15.9 µM
GI50 (UACC-257 melanoma): 2.31 µM
TGI (UACC-257 melanoma): 5.98 µM
GI50 (OVCAR-8 ovarian): 3.22 µM
TGI (OVCAR-8 ovarian): 18.5 µM
GI50 (SF-539 CNS): 5.73 µM
TGI (SF-539 CNS): 20.4 µM
GI50 (EKVX NSCLC): 2.14 µM
TGI (EKVX NSCLC): 12 µM
GI50 (K-562 leukemia): 5.25 µM
TGI (K-562 leukemia): > 100 µM
GI50 (HT29 colon): 4.1 µM
TGI (HT29 colon): 14.8 µM

COc1ccc(N2CCN(C(=O)c3ccccc3Nc3ccnc(C(F)(F)F)c3)CC2)cc1
GI50 (SF-268 CNS): > 100 µM
TGI (SF-268 CNS): > 100 µM
GI50 (MCF7 breast): 36.4 µM
TGI (MCF7 breast): > 100 µM
GI50 (M14 melanoma): 87.3 µM
TGI (M14 melanoma): > 100 µM
GI50 (MDA-MB-231 breast): > 100 µM
TGI (MDA-MB-231 breast): > 100 µM
GI50 (UACC-257 melanoma): 20.8 µM
TGI (UACC-257 melanoma): > 100 µM
GI50 (OVCAR-8 ovarian): 40.7 µM
TGI (OVCAR-8 ovarian): > 100 µM
GI50 (SF-539 CNS): > 100 µM
TGI (SF-539 CNS): > 100 µM
GI50 (EKVX NSCLC): 39.3 µM
TGI (EKVX NSCLC): > 100 µM
GI50 (K-562 leukemia): 59.3 µM
TGI (K-562 leukemia): > 100 µM
GI50 (HT29 colon): 77.1 µM
TGI (HT29 colon): > 100 µM

O=c1[nH]cc(CS(=O)(=O)Cc2c[nH]c(=O)[nH]c2=O)c(=O)[nH]1
TGI (SF-268 CNS): > 100 µM
TGI (MCF7 breast): > 100 µM
TGI (M14 melanoma): > 100 µM
TGI (MDA-MB-231 breast): > 100 µM
TGI (UACC-257 melanoma): > 100 µM
TGI (OVCAR-8 ovarian): > 100 µM
TGI (SF-539 CNS): > 100 µM
TGI (EKVX NSCLC): > 100 µM
TGI (K-562 leukemia): > 100 µM
TGI (HT29 colon): > 100 µM

CN(C)c1ccc(/C=C2\C[C@H]3[C@@H]4CC=C5C[C@@H](N6CCCC6)CC[C@]5(C)[C@H]4CC[C@]3(C)[C@H]2O)cc1
GI50 (SF-268 CNS): 2.93 µM
TGI (SF-268 CNS): 2.4 µM and 9.84 µM
TGI (MCF7 breast): 12.5 µM
GI50 (M14 melanoma): 1.8 µM
TGI (M14 melanoma): 1.45 µM and 3.63 µM
GI50 (MDA-MB-231 breast): 2.23 µM
TGI (MDA-MB-231 breast): 2.16 µM and 4.46 µM
GI50 (UACC-257 melanoma): 2.09 µM
TGI (UACC-257 melanoma): 1.89 µM and 4.02 µM
GI50 (OVCAR-8 ovarian): 2.87 µM
TGI (OVCAR-8 ovarian): 1.75 µM and 5.47 µM
TGI (SF-539 CNS): 12.8 µM
GI50 (EKVX NSCLC): 3.67 µM
TGI (EKVX NSCLC): 7.72 µM and 26.4 µM
GI50 (K-562 leukemia): 2.36 µM
GI50 (HT29 colon): 3.17 µM
TGI (HT29 colon): 3.54 µM and 15.1 µM

C=C(C=O)C1CC(=O)C(C(=O)OC)[C@@H]2O[C@@](C)(CC2=O)C[C@@H]2OC(=O)[C@]3(O[C@@H]23)[C@@H](C(=O)OC)C1 (some centres not stated)
GI50 (SF-268 CNS): 21.5 µM
TGI (SF-268 CNS): 65.9 µM
GI50 (MCF7 breast): 11.1 µM
TGI (MCF7 breast): 28 µM
GI50 (M14 melanoma): 14.8 µM
TGI (M14 melanoma): 30.4 µM
GI50 (MDA-MB-231 breast): 22.1 µM
TGI (MDA-MB-231 breast): 57.5 µM
GI50 (UACC-257 melanoma): 10.2 µM
TGI (UACC-257 melanoma): 28.6 µM
GI50 (OVCAR-8 ovarian): 17.9 µM
TGI (OVCAR-8 ovarian): 62.4 µM
GI50 (SF-539 CNS): 18 µM
TGI (SF-539 CNS): 61.2 µM
GI50 (EKVX NSCLC): 27.2 µM
TGI (EKVX NSCLC): 95.1 µM
GI50 (K-562 leukemia): 20.1 µM
TGI (K-562 leukemia): > 100 µM
GI50 (HT29 colon): 29 µM
TGI (HT29 colon): > 100 µM

CN1/C(=C\C(I)C(I)C2=[N+](C)c3ccccc3C2(C)C)C(C)(C)c2ccccc21 (configuration not stated)
GI50 (SF-268 CNS): 0.479 µM
TGI (SF-268 CNS): 19.1 µM
GI50 (MCF7 breast): 0.485 µM
TGI (MCF7 breast): 19.2 µM
GI50 (M14 melanoma): 0.367 µM
TGI (M14 melanoma): 13.2 µM
GI50 (MDA-MB-231 breast): 0.773 µM
TGI (MDA-MB-231 breast): 20.9 µM
GI50 (UACC-257 melanoma): 0.175 µM
TGI (UACC-257 melanoma): 2.24 µM
GI50 (OVCAR-8 ovarian): 0.303 µM
TGI (OVCAR-8 ovarian): 13.9 µM
GI50 (SF-539 CNS): 0.783 µM
TGI (SF-539 CNS): 23.6 µM
GI50 (EKVX NSCLC): 0.369 µM
TGI (EKVX NSCLC): 36.7 µM
GI50 (K-562 leukemia): 0.202 µM
TGI (K-562 leukemia): 14.6 µM
GI50 (HT29 colon): 0.242 µM
TGI (HT29 colon): 11.4 µM

Oc1ccc2oc3ncc(Cl)c(-c4ccccc4)c3c2c1
GI50 (SF-268 CNS): > 100 µM
TGI (SF-268 CNS): > 100 µM
GI50 (MCF7 breast): > 100 µM
TGI (MCF7 breast): > 100 µM
GI50 (M14 melanoma): > 100 µM
TGI (M14 melanoma): > 100 µM
GI50 (MDA-MB-231 breast): > 100 µM
TGI (MDA-MB-231 breast): > 100 µM
GI50 (UACC-257 melanoma): > 100 µM
TGI (UACC-257 melanoma): > 100 µM
GI50 (OVCAR-8 ovarian): > 100 µM
TGI (OVCAR-8 ovarian): > 100 µM
GI50 (SF-539 CNS): > 100 µM
TGI (SF-539 CNS): > 100 µM
GI50 (EKVX NSCLC): > 100 µM
TGI (EKVX NSCLC): > 100 µM
GI50 (K-562 leukemia): > 100 µM
TGI (K-562 leukemia): > 100 µM
GI50 (HT29 colon): > 100 µM
TGI (HT29 colon): > 100 µM

Cn1c2ccccc2c(=Nc2ccccc2)c2c3ccccc3[nH]c21
GI50 (SF-268 CNS): 0.436 µM
TGI (SF-268 CNS): 2.37 µM
GI50 (MCF7 breast): 0.284 µM
TGI (MCF7 breast): 1.86 µM
GI50 (M14 melanoma): 1.65 µM
TGI (M14 melanoma): 3.02 µM
GI50 (MDA-MB-231 breast): 1.62 µM
TGI (MDA-MB-231 breast): 3.11 µM
GI50 (UACC-257 melanoma): 3.02 µM
TGI (UACC-257 melanoma): 16 µM
GI50 (OVCAR-8 ovarian): 1.85 µM
TGI (OVCAR-8 ovarian): 10.2 µM
GI50 (SF-539 CNS): 1.17 µM
TGI (SF-539 CNS): 2.46 µM
GI50 (EKVX NSCLC): 3.21 µM
TGI (EKVX NSCLC): 8.63 µM
GI50 (K-562 leukemia): 1.84 µM
TGI (K-562 leukemia): 15.7 µM
GI50 (HT29 colon): 2.36 µM
TGI (HT29 colon): > 100 µM

Cc1ccc(Cl)cc1Nc1nc(C(F)(F)F)ccc1C(=O)Nc1cccc(C(F)(F)F)c1
GI50 (SF-268 CNS): 3.59 µM
TGI (SF-268 CNS): 13.8 µM
GI50 (MCF7 breast): 2.49 µM
TGI (MCF7 breast): 9.5 µM
GI50 (M14 melanoma): 2.99 µM
TGI (M14 melanoma): 10.3 µM
GI50 (MDA-MB-231 breast): 2.29 µM
TGI (MDA-MB-231 breast): 9.63 µM
GI50 (UACC-257 melanoma): 2.93 µM
TGI (UACC-257 melanoma): 8.35 µM
GI50 (OVCAR-8 ovarian): 3.62 µM
TGI (OVCAR-8 ovarian): 15.8 µM
GI50 (SF-539 CNS): 3.95 µM
TGI (SF-539 CNS): 14.1 µM
GI50 (EKVX NSCLC): 2.7 µM
TGI (EKVX NSCLC): 10.9 µM
GI50 (K-562 leukemia): 3.59 µM
TGI (K-562 leukemia): > 100 µM
GI50 (HT29 colon): 2.82 µM
TGI (HT29 colon): 12.8 µM
